Literature values in article PMC11491004, “CHF6523 data suggest that the phosphoinositide 3-kinase delta isoform is not a suitable target for the management of COPD” (Respiratory Research, 2024).

What was measured:
[1] = test system: airway inflammation; design: method as in ref 12 = [12]; 12. Blomqvist S Andreasson T Arlbrandt S Bold P Bjorhall K Brülls M In vivo dual Pi3kγδ inhibition in a rat model of pulmonary inflammation - evidence of local therapeutic activity Am J Respir Crit Ca; conditions: cited from earlier work
[2] = molecular target: T1, PI3Kδ (Homo sapiens, UniProt O00329); design: method as in ref 14 = [14]; 14. Wilson R Cahn A Montembault M Green J Musani N Begg M Safety, tolerability, pharmacokinetics (PK) and pharmacodynamics (PD) of single (SD) and repeat (RD) inhaled doses of a novel phosphoinositide; conditions: healthy volunteer study; Day 12; cited from earlier work
[3] = molecular target: T1, PI3Kδ; design: from tissue; host or cells: induced sputum of COPD patients (in vivo dosing by inhalation); method as in PMID 30886125; conditions: healthy smokers; cited from earlier work
[4] = test system: sputum IL-5, IL-13, IL-6 or IL-8; design: method as in PMID 30217958; conditions: patients with asthma; cited from earlier work
[5] = molecular target: T1, PI3Kδ; design: from tissue; host or cells: induced sputum of COPD patients (in vivo dosing by inhalation); method as in PMID 36841351; conditions: activated PI3Kδ syndrome; cited from earlier work
[6] = design: method as in PMID 34113095; conditions: cited from earlier work
[7] = test system: sputum IL-6 and IL-8; design: method as in PMID 28823947; conditions: patients with COPD; cited from earlier work

T1 sequence (O00329 whole entry): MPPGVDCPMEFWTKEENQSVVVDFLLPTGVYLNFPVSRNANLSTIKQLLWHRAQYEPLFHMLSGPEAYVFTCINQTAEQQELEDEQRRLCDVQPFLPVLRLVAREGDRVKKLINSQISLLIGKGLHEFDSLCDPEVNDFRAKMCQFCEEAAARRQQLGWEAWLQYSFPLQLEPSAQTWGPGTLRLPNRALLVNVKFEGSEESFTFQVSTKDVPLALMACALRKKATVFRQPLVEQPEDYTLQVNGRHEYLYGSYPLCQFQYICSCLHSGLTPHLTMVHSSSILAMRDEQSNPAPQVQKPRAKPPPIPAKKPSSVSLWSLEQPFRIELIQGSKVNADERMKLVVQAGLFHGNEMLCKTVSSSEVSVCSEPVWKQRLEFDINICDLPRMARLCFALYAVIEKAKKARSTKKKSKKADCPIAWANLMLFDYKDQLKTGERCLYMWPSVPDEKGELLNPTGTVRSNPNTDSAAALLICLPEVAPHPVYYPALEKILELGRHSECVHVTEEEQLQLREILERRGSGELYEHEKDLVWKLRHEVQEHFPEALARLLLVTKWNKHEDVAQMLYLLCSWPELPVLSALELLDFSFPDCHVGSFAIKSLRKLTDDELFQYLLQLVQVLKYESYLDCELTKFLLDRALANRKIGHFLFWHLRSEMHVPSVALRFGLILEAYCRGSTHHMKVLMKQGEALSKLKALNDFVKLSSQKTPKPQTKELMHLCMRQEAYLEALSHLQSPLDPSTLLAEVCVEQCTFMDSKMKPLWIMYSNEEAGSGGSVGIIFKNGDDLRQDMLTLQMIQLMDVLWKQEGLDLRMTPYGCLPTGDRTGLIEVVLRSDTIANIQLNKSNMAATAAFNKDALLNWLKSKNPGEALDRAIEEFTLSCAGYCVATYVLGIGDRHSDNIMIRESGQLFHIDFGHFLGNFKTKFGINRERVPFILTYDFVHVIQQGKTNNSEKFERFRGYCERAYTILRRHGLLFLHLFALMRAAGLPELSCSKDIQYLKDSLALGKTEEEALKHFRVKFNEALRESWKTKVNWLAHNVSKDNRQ
T1 sequence (P27986 whole entry partner): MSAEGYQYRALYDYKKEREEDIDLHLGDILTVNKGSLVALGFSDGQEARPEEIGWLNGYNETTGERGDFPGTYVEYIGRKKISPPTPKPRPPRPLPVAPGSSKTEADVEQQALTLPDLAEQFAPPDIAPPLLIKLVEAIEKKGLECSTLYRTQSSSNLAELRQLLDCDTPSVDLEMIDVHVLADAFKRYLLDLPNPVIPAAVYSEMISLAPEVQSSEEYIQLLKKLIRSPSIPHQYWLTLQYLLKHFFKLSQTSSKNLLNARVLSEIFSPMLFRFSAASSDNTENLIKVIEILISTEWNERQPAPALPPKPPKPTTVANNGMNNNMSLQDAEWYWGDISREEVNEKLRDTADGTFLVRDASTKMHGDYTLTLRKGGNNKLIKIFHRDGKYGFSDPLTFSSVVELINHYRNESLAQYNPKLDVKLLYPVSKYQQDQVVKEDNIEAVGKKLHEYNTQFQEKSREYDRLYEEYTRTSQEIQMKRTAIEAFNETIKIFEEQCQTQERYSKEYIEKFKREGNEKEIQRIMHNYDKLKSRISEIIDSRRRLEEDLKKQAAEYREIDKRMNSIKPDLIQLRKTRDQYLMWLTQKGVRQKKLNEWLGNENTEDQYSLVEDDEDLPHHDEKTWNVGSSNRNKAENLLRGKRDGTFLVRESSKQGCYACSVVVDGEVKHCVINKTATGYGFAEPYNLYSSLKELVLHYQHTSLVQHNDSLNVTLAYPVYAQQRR

SMILES	Efficacy in a rat model of airway inflammation [1]	Reduction in PIP3 [2]	Target engagement [3]	Sputum IL-5, IL-13, IL-6 or IL-8 compared to placebo [4]	Changes in target engagement or downstream inflammatory markers in induced sputum [5]	Primary and secondary endpoints ([6]; Phase IIb, patients with exacerbating COPD)	Most common adverse event ([6]; experienced post-inhalation and dose-related)	Sputum IL-6 and IL-8 levels compared to placebo [7]
Cc1nc(Nc2cccc(N3CCCC3=O)n2)sc1-c1cc2c(c(S(C)(=O)=O)c1)C(=O)N([C@@H](C)C1CC1)C2 [AZD8154]	demonstrated efficacy							
CC(C)N1CCN(Cc2cnc(-c3cc(-c4cccc5[nH]ccc45)cc4[nH]ncc34)o2)CC1 [nemiralisib]		35.7%	demonstrated target engagement	did not yield statistically significant reductions	no meaningful changes	neither the primary nor secondary endpoints were met	cough	did not significantly reduce
